Measured values: article PMC12102759 (Protein Science : A Publication of the Protein Society, 2025)

Columns and labels:
NSP3 SUD-M = NSP3 SUD-M (Severe acute respiratory syndrome coronavirus 2, UniProt P0DTC1); test: biochemical; assay type: binding, SARS‐CoV‐2
NSP3 UBl1 = NSP3 UBl1 (Severe acute respiratory syndrome coronavirus 2, UniProt P0DTC1); assay type: binding, SARS‐CoV‐2
NSP9 = NSP9 (Severe acute respiratory syndrome coronavirus 2, UniProt P0DTC1); assay type: binding, SARS‐CoV‐2

Substance: Ac-QFTEEALHFVLYGVTPY-NH2 [PRDM14 D201A]
- effect of mutation on affinity, in words (NSP3 SUD-M): reduced affinity

Substance: GHSPADYLRFQDLVLR
- DMS PSSM value, P (position 4) (NSP16): 0.03004
- DMS PSSM value, column A (position 5) (NSP16): 0.5801
- DMS PSSM value, column D (position 6) (NSP16): 0.9437
- DMS PSSM value, column D (position 12) (NSP16): 0.8934
- DMS PSSM value, column F (position 10) (NSP16): 1
- DMS PSSM value, column G (position 1) (NSP16): 0.4974
- DMS PSSM value, column H (position 2) (NSP16): 0.3305
- DMS PSSM value, column L (position 8) (NSP16): 0.965
- DMS PSSM value, column L (position 13) (NSP16): 0.8766
- DMS PSSM value, column L (position 15) (NSP16): 0.9948
- DMS PSSM value, column Q (position 11) (NSP16): 1
- DMS PSSM value, column R (position 9) (NSP16): 0.07816
- DMS PSSM value, column S (position 3) (NSP16): 0.3438
- DMS PSSM value, column V (position 14) (NSP16): 0.9023
- DMS PSSM value, column Y (position 7) (NSP16): 1

Substance: EPGHSPADYLRFQDLV
- DMS PSSM value, P (position 2) (NSP16): 0
- DMS PSSM value, column A (position 7) (NSP16): 0
- DMS PSSM value, column D (position 8) (NSP16): 1
- DMS PSSM value, column D (position 14) (NSP16): 1
- DMS PSSM value, column F (position 12) (NSP16): 1
- DMS PSSM value, column G (position 3) (NSP16): 0
- DMS PSSM value, column H (position 4) (NSP16): 1
- DMS PSSM value, column L (position 10) (NSP16): 0
- DMS PSSM value, column L (position 15) (NSP16): 0
- DMS PSSM value, column P (position 6) (NSP16): 0
- DMS PSSM value, column Q (position 13) (NSP16): 1
- DMS PSSM value, column R (position 11) (NSP16): 1
- DMS PSSM value, column S (position 5) (NSP16): 0
- DMS PSSM value, column V (position 16) (NSP16): 1
- DMS PSSM value, column Y (position 9) (NSP16): 0

Substance: DEGALLDQLYLALRNF
- PSSM value, column E (NSP3 UBl1): 1
- PSSM value, column G (NSP3 UBl1): 0.00255
- PSSM value, column N (NSP3 UBl1): 0.0003155
- PSSM value, column Q (NSP3 UBl1): 0.001034
- PSSM value, column R (NSP3 UBl1): 0.0009557
- PSSM value, column Y (NSP3 UBl1): 0.8625

Substance: NSSGLSIGTVFQSSSP
- PSSM value, position F11 of NSSGLSIGTVFQSSSP (NSP9): 0.004607
- PSSM value, position I7 of NSSGLSIGTVFQSSSP (NSP9): 0.3584
- PSSM value, position L5 of NSSGLSIGTVFQSSSP (NSP9): 0.5284
- PSSM value, position P16 of NSSGLSIGTVFQSSSP (NSP9): 0.0472
- PSSM value, position Q12 of NSSGLSIGTVFQSSSP (NSP9): 0.008402
- PSSM value, position S2 of NSSGLSIGTVFQSSSP (NSP9): 0.1505
- PSSM value, position S3 of NSSGLSIGTVFQSSSP (NSP9): 0.01233
- PSSM value, position S6 of NSSGLSIGTVFQSSSP (NSP9): 0.08225
- PSSM value, position S13 of NSSGLSIGTVFQSSSP (NSP9): 0.05519
- PSSM value, position S14 of NSSGLSIGTVFQSSSP (NSP9): 0.02572
- PSSM value, position S15 of NSSGLSIGTVFQSSSP (NSP9): 0.009443
- PSSM value, position T9 of NSSGLSIGTVFQSSSP (NSP9): 0.0231
- PSSM value, position V10 of NSSGLSIGTVFQSSSP (NSP9): 0.01201

Substance: PSDEGALLDQLYLALR
- PSSM value, column E (NSP3 UBl1): 0.9239
- PSSM value, column G (NSP3 UBl1): 0.163
- PSSM value, column Q (NSP3 UBl1): 0.8454
- PSSM value, column R (NSP3 UBl1): 0.000271
- PSSM value, column S (NSP3 UBl1): 0.00806
- PSSM value, column Y (NSP3 UBl1): 0.04994

Substance: Ac-QFTEENLHFVLYGVTPY-NH2 [PRDM14 D201N]
- effect of mutation on affinity, in words (NSP3 SUD-M): reduced affinity

Substance: SGLSIGTVFQSSSPGG
- PSSM value, position F9 of SGLSIGTVFQSSSPGG (NSP9): 0
- PSSM value, position I5 of SGLSIGTVFQSSSPGG (NSP9): 1
- PSSM value, position L3 of SGLSIGTVFQSSSPGG (NSP9): 0
- PSSM value, position P14 of SGLSIGTVFQSSSPGG (NSP9): 0
- PSSM value, position Q10 of SGLSIGTVFQSSSPGG (NSP9): 0
- PSSM value, position S1 of SGLSIGTVFQSSSPGG (NSP9): 0
- PSSM value, position S4 of SGLSIGTVFQSSSPGG (NSP9): 0
- PSSM value, position S11 of SGLSIGTVFQSSSPGG (NSP9): 0
- PSSM value, position S12 of SGLSIGTVFQSSSPGG (NSP9): 0
- PSSM value, position S13 of SGLSIGTVFQSSSPGG (NSP9): 0
- PSSM value, position T7 of SGLSIGTVFQSSSPGG (NSP9): 0
- PSSM value, position V8 of SGLSIGTVFQSSSPGG (NSP9): 0
